Measurements taken from patent US20240316059A1, “PEPTIDE DRUG CONJUGATES” (Oncopeptides AB, priority 2021, published 2024).
Like-named read-outs stand apart in the source and are kept apart here.

Tests used:
HG-3 = experiment: In vitro cytotoxicity, HG-3 (Chronic Lymphocytic Leukemia); format: cell-based; details: Homo sapiens, HG-3, 72 h, read-out: Cytotoxicity IC50, HG-3
Description: (§1) All cells were cultivated in RPMI medium 1640 (IX). All media was supplemented with 10 μg/μl penicillin/streptomycin, 10% heat inactivated FBS, 0.1 mM Sodium Pyruvate, 1×MEM NEAA (ThermoFisher) and 1 mM HEPES. The DERL-2 cells had higher FBS (20%) and 40 ng/mL IL-2 was added. hPBMCs were thawed and allowed to acclimatise overnight and then stimulated with 10 μg/mL PHA-M and 40 ng/mL IL-2 for 4 hours before being exposed to test compounds. All cells, except for hPBMCs, were grown to reach log phase before being exposed to the test compounds.
(§2) Test compounds were dissolved in 100% DMSO and added to a 384 assay plate. Additional DMSO was added to maintain the same final DMSO concentration (0.2%) in all wells. 25 μL cell suspension with a concentration of 100000 cells/mL was added to each well. The cells were cultured in a CO2 incubator at 37° C. for 72 h. Plates were equilibrated to room temperature for 30 minutes before adding 20 μL CellTiter-Glo® 2.0 (Promega) reagent to all wells. The plate was then allowed to stabilize for 20 minutes before recording the luminescence (Em filter 700 nm) in an Envision plate reader.

EJM = experiment: In vitro cytotoxicity, EJM (Multiple Myeloma); format: cell-based; details: Homo sapiens, 72 h, read-out: Cytotoxicity IC50, EJM
Description: as §1, §2

OPM-2 = experiment: In vitro cytotoxicity, OPM-2 (Multiple Myeloma); format: cell-based; details: Homo sapiens, OPM-2, 72 h, read-out: Cytotoxicity IC50, OPM-2
Description: as §1, §2

[1] = system: DNA prepared from MM.1S cells (nuclear HPRT and mitochondrial DNA); experiment: Direct DNA damage, PCR amplification of treated DNA (HPRT and mtDNA primers); format: biochemical, human; details: 0.25 μM compound, 30 minutes, 37° C., 1 μg DNA
In short: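 Genomic DNA isolated from MM.1S cells, 1 μg treated with 0.25 μM compound for 30 min at 37 °C, DMSO as control. Long-range PCR on 20 ng treated DNA yielding 10.4 kb (HPRT) or 8.9 kb (mtDNA) fragments; damage assessed by loss of product on 1% agarose gel.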

MM.1S cells [2] = experiment: In vitro cytotoxic potency in MM.1S cell viability assay (CellTiter-Glo); format: cell-based, human; details: Homo sapiens, MM1.S, 72 h
In short: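 Log-phase MM.1S cells in supplemented RPMI 1640 were seeded at 100000 cells/mL with compound (0.2% DMSO final). After 72 h at 37 °C in CO2, viability was measured by CellTiter-Glo 2.0 luminescence.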

U266 = experiment: In vitro cytotoxicity, U266 (Multiple Myeloma); format: cell-based; details: Homo sapiens, U-266, 72 h, read-out: Cytotoxicity IC50, U266
Description: as §1, §2

AMO-1 = experiment: In vitro cytotoxicity, AMO-1 (Multiple Myeloma); format: cell-based; details: Homo sapiens, AMO1, 72 h, read-out: Cytotoxicity IC50, AMO-1
Description: as §1, §2

DERL-2 = experiment: In vitro cytotoxicity, DERL-2 (T cell Lymphoma); format: cell-based; details: Homo sapiens, 72 h, read-out: Cytotoxicity IC50, DERL-2
Description: as §1, §2

MM.1S cells [3] = experiment: DNA fragmentation, APO-BrdU TUNEL assay by flow cytometry; format: cell-based, human; details: 24 h; for Cells with DNA breaks (TUNEL positive cells): 0.6 μM; for Dose response effect on DNA damage (TUNEL): 0.006, 0.06, 0.6 or 6 μM
Description: Method: 1×10^6 MM.1S cells (CRL-2974, ATCC) were treated with Example compound 1 or Bendamustine at 0.006, 0.06, 0.6 or 6 μM for 24 h. After incubation, the cells were washed with PBS (10010-015, Gibco), fixed in Flow Cytometry Fixation Buffer (FC004, R&D Systems) for 10 min and stored in 70% ethanol at −20° C. overnight. The deoxythymidine analog (BrdUTP) was present in the experiment and served to label the DNA break sites. Next day, the cells were washed and stained using an APO-BrdU™ TUNEL Assay Kit, according to the manufacturer's protocol (A23210, Invitrogen), followed by the analysis using BD FACSCanto™ II. The percentage of TUNEL positive cells indicates the percentage of cells with fragmented DNA.

RPMI-8226 = experiment: In vitro cytotoxicity, RPMI-8226 (Multiple Myeloma, resistant); format: cell-based; details: Homo sapiens, RPMI-8226, 72 h, read-out: Cytotoxicity IC50, RPMI-8226
In short: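 CellTiter-Glo 2.0 luminescence after 72 h compound exposure, 37 °C, CO2. Cells at 100000 cells/mL, log phase, RPMI 1640 + 10% FBS; DERL-2: 20% FBS, 40 ng/mL IL-2. Final DMSO 0.2%.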

[4] = In vitro cytotoxicity, human peripheral blood mononuclear cells; format: cell-based; details: CellTiter-Glo 2.0, stimulated with PHA-M and IL-2, read-out: Cytotoxicity IC50, hPBMC
Description: as §1, §2

THP-1 = experiment: In vitro cytotoxicity, THP-1 (Acute Myeloid Leukemia); format: cell-based; details: Homo sapiens, THP-1, 72 h, read-out: Cytotoxicity IC50, THP-1
Description: as §1, §2

[5] = read-out: Cytotoxicity IC50, MM.1S

| SMILES | IC50 (HG-3) | IC50 (EJM) | IC50 (OPM-2) | DNA damage on nuclear and mitochondrial DNA (PCR band) [1] | IC50 (MM.1S cells [2]; [5]) | IC50 (MM.1S cells [2]; read-out: MM.1S IC50) | IC50 (U266) | IC50 (AMO-1) | IC50 (DERL-2) | Cells with DNA breaks (TUNEL positive cells) (MM.1S cells [3]) | Dose response effect on DNA damage (TUNEL) (MM.1S cells [3]) | IC50 (RPMI-8226) | IC50 at 72 h [4] | IC50 (THP-1) |
| --- | --- | --- | --- | --- | --- | --- | --- | --- | --- | --- | --- | --- | --- | --- |
| Cn1c(CCCC(=O)O)nc2cc(N(CCCl)CCCl)ccc21 [Bendamustine, bendamustine, reference compound] | 25.8 µM | 64.6 µM | 81.9 µM | no or very minor effect on DNA damage | 24 µM | 24 µM | 83 µM | 57 µM | 21.1 µM | that was not the case | no obvious effect | 111 µM | 15.8 µM | 40.2 µM |
| CCOC(=O)[C@H](CC(C)C)NC(=O)[C@@H](N)CCc1nc2cc(N(CCCl)CCCl)ccc2n1C [Example 1, Ethyl (2S)-2-[[(2S)-2-amino-4-[5-[bis(2-chloroethyl)amino]-1-methyl-benzimidazol-2-yl]butanoyl]amino]-4-methyl-pentanoate] | 0.0257 µM | 0.0271 µM | 0.173 µM | strong DNA damaging effect | 0.0068 µM | 0.0068 µM | 0.0214 µM | 0.0497 µM | 0.006 µM | > 90% | induced DNA damage in a dose-dependent manner | 0.0906 µM | 0.0054 µM | 0.016 µM |
